ChEMBL document CHEMBL1135064, “Studies on quinazolinones as dual inhibitors of Pgp and MRP1 in multidrug resistance” (Bioorg Med Chem Lett, 2002)

Legend:
[1] = target: Multidrug resistance-associated protein 1 (Homo sapiens, UniProt P33527); experiment: Inhibition of multidrug resistance associated protein type 1 (MRP1) assayed by an accumulation assay in COR.L23/R cells; format: functional, cell-based
[2] = target: ATP-dependent translocase ABCB1 (Mus musculus, UniProt P06795); experiment: Inhibitory activity against P-glycoprotein (Pgp) using accumulation assay for Pgp expressing EMT6/AR1.0 cells.; format: functional
[3] = Compound was evaluated for its inhibitory activity against multidrug resistance associated protein type 1 (MRP) using potentiation assay; format: functional, Homo sapiens
EMT6 = experiment: Compound was evaluated for its inhibitory activity against P-glycoprotein (Pgp) using potentiation assay; format: functional, cell-based; conditions: Mus musculus

Chain of ATP-dependent translocase ABCB1 (P06795 whole entry): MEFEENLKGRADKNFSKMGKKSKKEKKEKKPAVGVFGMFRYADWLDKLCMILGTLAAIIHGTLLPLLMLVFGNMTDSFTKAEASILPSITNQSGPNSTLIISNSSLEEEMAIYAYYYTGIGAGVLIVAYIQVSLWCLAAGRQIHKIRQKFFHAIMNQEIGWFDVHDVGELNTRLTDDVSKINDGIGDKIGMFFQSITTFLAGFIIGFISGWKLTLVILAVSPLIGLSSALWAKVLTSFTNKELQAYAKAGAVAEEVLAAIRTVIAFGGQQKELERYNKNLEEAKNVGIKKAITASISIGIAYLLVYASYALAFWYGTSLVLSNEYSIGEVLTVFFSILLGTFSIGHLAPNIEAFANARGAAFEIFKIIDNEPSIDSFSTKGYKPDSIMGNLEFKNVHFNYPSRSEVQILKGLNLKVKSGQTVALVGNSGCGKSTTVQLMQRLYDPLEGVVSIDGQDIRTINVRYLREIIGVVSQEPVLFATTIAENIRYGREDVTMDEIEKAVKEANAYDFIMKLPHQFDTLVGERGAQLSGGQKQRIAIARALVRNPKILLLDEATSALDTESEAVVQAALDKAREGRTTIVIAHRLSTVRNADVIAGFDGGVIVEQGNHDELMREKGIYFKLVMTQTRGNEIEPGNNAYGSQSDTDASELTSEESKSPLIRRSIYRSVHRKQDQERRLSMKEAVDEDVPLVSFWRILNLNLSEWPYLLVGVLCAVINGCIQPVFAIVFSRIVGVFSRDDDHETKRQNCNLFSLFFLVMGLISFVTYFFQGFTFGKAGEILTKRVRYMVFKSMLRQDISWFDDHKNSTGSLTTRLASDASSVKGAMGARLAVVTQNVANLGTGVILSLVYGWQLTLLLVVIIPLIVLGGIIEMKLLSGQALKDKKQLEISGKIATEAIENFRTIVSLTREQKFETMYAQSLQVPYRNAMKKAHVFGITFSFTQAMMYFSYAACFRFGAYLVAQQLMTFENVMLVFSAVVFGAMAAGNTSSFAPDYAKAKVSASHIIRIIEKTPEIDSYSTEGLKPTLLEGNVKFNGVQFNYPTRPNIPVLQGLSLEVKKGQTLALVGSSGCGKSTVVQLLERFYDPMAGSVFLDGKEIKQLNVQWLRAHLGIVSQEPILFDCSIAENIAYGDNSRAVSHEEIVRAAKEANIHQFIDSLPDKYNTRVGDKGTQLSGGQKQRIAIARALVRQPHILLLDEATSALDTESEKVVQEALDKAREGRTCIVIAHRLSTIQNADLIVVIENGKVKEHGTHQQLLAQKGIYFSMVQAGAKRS
Chain of Multidrug resistance-associated protein 1 (P33527 whole entry): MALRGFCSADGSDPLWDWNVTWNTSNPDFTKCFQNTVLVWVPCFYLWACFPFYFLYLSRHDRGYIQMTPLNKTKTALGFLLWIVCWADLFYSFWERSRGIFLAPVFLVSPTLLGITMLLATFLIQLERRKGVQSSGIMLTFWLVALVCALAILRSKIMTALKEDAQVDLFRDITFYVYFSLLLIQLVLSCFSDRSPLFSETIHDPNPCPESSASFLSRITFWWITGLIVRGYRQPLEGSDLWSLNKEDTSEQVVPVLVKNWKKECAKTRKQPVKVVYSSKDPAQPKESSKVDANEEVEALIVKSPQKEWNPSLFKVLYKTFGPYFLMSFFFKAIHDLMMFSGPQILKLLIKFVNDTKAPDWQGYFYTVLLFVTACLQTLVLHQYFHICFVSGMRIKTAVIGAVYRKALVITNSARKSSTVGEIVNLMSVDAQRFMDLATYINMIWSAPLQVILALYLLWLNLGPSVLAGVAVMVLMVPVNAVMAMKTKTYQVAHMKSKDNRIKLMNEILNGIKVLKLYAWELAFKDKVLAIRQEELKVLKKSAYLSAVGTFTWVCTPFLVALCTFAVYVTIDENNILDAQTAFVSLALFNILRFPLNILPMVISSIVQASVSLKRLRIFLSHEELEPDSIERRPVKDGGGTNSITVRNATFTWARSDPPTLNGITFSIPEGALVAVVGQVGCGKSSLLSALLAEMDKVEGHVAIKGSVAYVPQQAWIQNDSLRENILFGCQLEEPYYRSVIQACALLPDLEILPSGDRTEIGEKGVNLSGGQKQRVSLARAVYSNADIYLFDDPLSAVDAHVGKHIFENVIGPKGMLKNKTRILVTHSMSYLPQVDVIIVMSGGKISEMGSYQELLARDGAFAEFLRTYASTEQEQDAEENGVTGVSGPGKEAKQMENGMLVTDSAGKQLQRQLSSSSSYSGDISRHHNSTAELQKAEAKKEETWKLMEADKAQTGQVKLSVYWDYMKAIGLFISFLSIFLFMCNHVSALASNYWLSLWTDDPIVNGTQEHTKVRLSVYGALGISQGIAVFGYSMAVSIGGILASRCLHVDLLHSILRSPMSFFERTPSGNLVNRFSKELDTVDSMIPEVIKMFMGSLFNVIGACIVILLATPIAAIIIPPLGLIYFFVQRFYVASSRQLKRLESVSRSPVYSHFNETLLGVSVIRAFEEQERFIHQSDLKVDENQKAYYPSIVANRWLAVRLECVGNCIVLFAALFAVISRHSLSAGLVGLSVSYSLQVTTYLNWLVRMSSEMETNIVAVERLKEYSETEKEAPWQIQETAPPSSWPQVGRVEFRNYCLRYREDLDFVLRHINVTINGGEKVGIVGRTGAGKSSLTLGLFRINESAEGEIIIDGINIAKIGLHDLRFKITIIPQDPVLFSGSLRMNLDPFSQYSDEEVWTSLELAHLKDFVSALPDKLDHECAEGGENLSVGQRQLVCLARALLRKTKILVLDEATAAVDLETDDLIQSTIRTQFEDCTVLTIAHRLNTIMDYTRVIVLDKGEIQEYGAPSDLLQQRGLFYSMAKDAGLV

Row | Compound | IC50 [1] [nM] | IC50 [2] [nM] | EC50 [3] [nM] | EC50 (EMT6) [nM]
1 | CCCCCCn1c(-c2ccc(N(C)C)cc2)nc2ccccc2c1=O | > 100000 | 40000 |  | 
2 | COc1cc2c(cc1OC)CN(CCn1c(-c3ccc(N(C)C)cc3)nc3c(Cl)cccc3c1=O)CC2 | 2910 | 1060 |  | 
3 | COc1cc2c(cc1OC)CN(CCn1c(-c3ccc(N(C)C)cc3)nc3ccc(N)cc3c1=O)CC2 | 7600 | 2000 |  | 
4 | CCCc1cccc(-c2nc3ccccc3c(=O)n2CCN2CCc3cc(OC)c(OC)cc3C2)c1 | 1000 | 800 |  | 
5 | COc1cc2c(cc1OC)CN(CCn1c(-c3ccc(N(C)C)cc3)nc3c(OC)cccc3c1=O)CC2 | 15100 | 50 |  | 
6 | CN(C)c1ccc(-c2nc3ccccc3c(=O)n2Cc2ccccc2)cc1 | > 100000 | 41000 |  | 
7 | COc1cc2c(cc1OC)CN(CCn1c(-c3ccc(-c4ccccc4)cc3)nc3ccccc3c1=O)CC2 | 1000 | 1030 |  | 
8 | CN(C)c1ccc(-c2nc3ccccc3c(=O)n2CCc2ccncc2)cc1 | 3330 | 10000 |  | 
9 | COc1cc2c(cc1OC)CN(CCn1c(-c3ccc(N(C)C)cc3)nc3cc(N)ccc3c1=O)CC2 | 18600 | 7200 |  | 
10 | CN(C)c1ccc(-c2nc3ccccc3c(=O)n2CCN2CCN(c3ncccn3)CC2)cc1 | 36000 | 390 |  | 
11 | COc1cc2c(cc1OC)CN(CCn1c(-c3ccc(N(C)C)cc3)nc3c(C)cccc3c1=O)CC2 | 6350 | 630 |  | 
12 | COc1cc2c(cc1OC)CN(CCn1c(-c3ccc(N(C)C)cc3)nc3cccc(Cl)c3c1=O)CC2 | 3840 | 160 |  | 
13 | COc1cc2c(cc1OC)CN(CCn1c(-c3ccc(C(C)C)cc3)nc3ccccc3c1=O)CC2 | 500 | 1000 |  | 
14 | COc1ccc(CCN(C)CCn2c(-c3ccc(N(C)C)cc3)nc3ccccc3c2=O)cc1OC | 37000 | 1900 |  | 
15 | COc1cc2c(cc1OC)CN(CCn1c(-c3ccc4c(c3)OCO4)nc3ccccc3c1=O)CC2 | 1500 | 3700 |  | 
16 | COc1cc2c(cc1OC)CN(CCn1c(-c3ccc(N(C)C)cc3)nc3cc([N+](=O)[O-])ccc3c1=O)CC2 | 2020 | 1100 |  | 
17 | CCN(CC)c1ccc(-c2nc3ccccc3c(=O)n2CCN2CCc3cc(OC)c(OC)cc3C2)cc1 | > 10000 | 1300 |  | 
18 | COc1cc2c(cc1OC)CN(CCn1c(-c3ccc(N(C)C)cc3)nc3ccc(Cl)cc3c1=O)CC2 | 1560 | 1700 |  | 
19 | COc1cc2c(cc1OC)CN(CCn1c(-c3ccccc3O)nc3ccccc3c1=O)CC2 | 95000 |  |  | 
20 | CN(C)c1ccc(-c2nc3ccccc3c(=O)n2CCN2CCc3ccccc3C2)cc1 | 3200 | 5000 |  | 
21 | CN(C)c1ccc(-c2nc3ccccc3c(=O)n2CC2CCCCC2)cc1 | 10000 | 14000 |  | 
22 | COc1cc(C(=O)N2CCN(CCn3c(-c4ccc(N(C)C)cc4)nc4ccccc4c3=O)CC2)cc(OC)c1OC | 7200 | 4200 |  | 
23 | COc1cc2c(cc1OC)CN(CCn1c(-c3ccc(N(C)C)cc3)nc3ccc([N+](=O)[O-])cc3c1=O)CC2 | 400 | 600 |  | 
24 | COc1cc2c(cc1OC)CN(CCn1c(-c3ccccc3)nc3ccccc3c1=O)CC2 | 2800 | 8000 |  | 
25 | CN(C)c1ccc(-c2nc3ccccc3c(=O)n2CCN2CCN(Cc3ccccc3)CC2)cc1 | 39000 | 2100 |  | 
26 | COc1cc2c(cc1OC)CN(CCn1c(-c3ccc(N(C)C)cc3)nc3ccccc3c1=O)CC2 | 1050 | 1070 | 3010 | 3300
27 | COc1cc2c(cc1OC)CN(CCn1c(-c3ccc(N(C)C)cc3)nc3cc(Cl)ccc3c1=O)CC2 | 1330 | 1350 |  | 
28 | COc1cc2c(cc1OC)CN(CCn1c(-c3cccc(N(C)C)c3)nc3ccccc3c1=O)CC2 | 4500 | 1600 |  | 
29 | COc1cc2c(cc1OC)CN(CCn1c(-c3ccc4ccccc4c3)nc3ccccc3c1=O)CC2 | 900 | 850 |  | 
30 | COc1cc(C(=O)C(=O)N2CCCC[C@H]2C(=O)OC(CCCc2cccnc2)CCCc2cccnc2)cc(OC)c1OC [BIRICODAR] | 5180 | 5000 |  | 
